According to patent EP0550016A1, “Novel quinolone carboxylic acid derivatives and processes for preparing same” (KOREA RESEARCH INSTITUTE OF CHEMICAL TECHNOLOGY, priority 1991, dated 1993):
≈ marks a conversion by molar mass, not a printed value. Read-outs that look alike come from different tables or passages of the source.

Key:
[1] = test system: Staphylococcus aureus 703 E; experiment: In vitro anti-bacterial activity test (MIC, two-fold dilution method), Table 2 strains; type: cell-based; details: Table 2 strain 12: Staphylococcus aureus 703 E; read-out: MIC
[2] = test system: Staphylococcus aureus 695 E; experiment: as above; type: cell-based; details: Table 2 strain 9: Staphylococcus aureus 695 E; read-out: MIC
[3] = test system: Klebsiella aerogenes 1522 E; experiment: In vitro anti-bacterial activity test (MIC, two-fold dilution method) against the standard strains; type: cell-based; details: Table 1 strain 18: Klebsiella aerogenes 1522 E
[4] = test system: Staphylococcus aureus 707 E; experiment: In vitro anti-bacterial activity test (MIC, two-fold dilution method), Table 2 strains; type: cell-based; details: Table 2 strain 15: Staphylococcus aureus 707 E; read-out: MIC
Escherichia coli DC 0 [5] = experiment: In vitro anti-bacterial activity test (MIC, two-fold dilution method) against the standard strains; type: cell-based; details: DC0; Table 1 strain 7: Escherichia coli DC 0
[6] = test system: Staphylococcus aureus 693 E; experiment: In vitro anti-bacterial activity test (MIC, two-fold dilution method), Table 2 strains; type: cell-based; details: Table 2 strain 7: Staphylococcus aureus 693 E; read-out: MIC
[7] = test system: Staphylococcus aureus 714 E; experiment: as above; type: cell-based; details: Table 2 strain 18: Staphylococcus aureus 714 E; read-out: MIC
[8] = test system: Staphylococcus aureus 694 E; experiment: as above; type: cell-based; details: Table 2 strain 8: Staphylococcus aureus 694 E; read-out: MIC
[9] = test system: Klebsiella aerogenes 1082 E; experiment: In vitro anti-bacterial activity test (MIC, two-fold dilution method) against the standard strains; type: cell-based; details: Table 1 strain 17: Klebsiella aerogenes 1082 E
[10] = test system: Pseudomonas aeruginosa 1771; experiment: as above; type: cell-based; details: Table 1 strain 14: Pseudomonas aeruginosa 1771
[11] = test system: Staphylococcus aureus 503; experiment: as above; type: cell-based; details: Table 1 strain 6: Staphylococcus aureus 503; read-out: MIC
[12] = test system: Staphylococcus aureus 256 E; experiment: In vitro anti-bacterial activity test (MIC, two-fold dilution method), Table 2 strains; type: cell-based; details: Table 2 strain 4: Staphylococcus aureus 256 E
Salmonella typhimurium = experiment: In vitro anti-bacterial activity test (MIC, two-fold dilution method) against the standard strains; type: cell-based; details: Salmonella enterica; Table 1 strain 16: Salmonella typhimurium
[13] = test system: Staphylococcus aureus 708 E; experiment: In vitro anti-bacterial activity test (MIC, two-fold dilution method), Table 2 strains; type: cell-based; details: Table 2 strain 16: Staphylococcus aureus 708 E
[14] = test system: Streptococcus pyogenes 77 A; experiment: In vitro anti-bacterial activity test (MIC, two-fold dilution method) against the standard strains; type: cell-based; details: Table 1 strain 2: Streptococcus pyogenes 77 A; read-out: MIC
Escherichia coli DC 0 [15] = experiment: as above; type: cell-based; details: DC0; Table 1 strain 8: Escherichia coli DC 0
[16] = test system: Enterobacter cloacae 1321 E; experiment: as above; type: cell-based; details: Table 1 strain 20: Enterobacter cloacae 1321 E
[17] = test system: Pseudomonas aeruginosa 1592 E; experiment: as above; type: cell-based; details: Table 1 strain 13: Pseudomonas aeruginosa 1592 E
[18] = test system: Staphylococcus aureus 706 E; experiment: In vitro anti-bacterial activity test (MIC, two-fold dilution method), Table 2 strains; type: cell-based; details: Table 2 strain 14: Staphylococcus aureus 706 E; read-out: MIC
[19] = test system: Staphylococcus aureus SG 511; experiment: In vitro anti-bacterial activity test (MIC, two-fold dilution method) against the standard strains; type: cell-based; details: SG511; Table 1 strain 4: Staphylococcus aureus SG 511
[20] = test system: Enterobacter cloacae P 99; experiment: as above; type: cell-based; details: P99; Table 1 strain 19: Enterobacter cloacae P 99
[21] = test system: Pseudomonas aeruginosa 1771 M; experiment: as above; type: cell-based; details: Table 1 strain 15: Pseudomonas aeruginosa 1771 M
Escherichia coli 1507 E = experiment: as above; type: cell-based; details: Table 1 strain 11: Escherichia coli 1507 E
[22] = test system: Staphylococcus aureus 701 E; experiment: In vitro anti-bacterial activity test (MIC, two-fold dilution method), Table 2 strains; type: cell-based; details: Table 2 strain 11: Staphylococcus aureus 701 E; read-out: MIC
Escherichia coli DC 2 = experiment: In vitro anti-bacterial activity test (MIC, two-fold dilution method) against the standard strains; type: cell-based; details: DC2; Table 1 strain 9: Escherichia coli DC 2; read-out: MIC
[23] = test system: Streptococcus pyogenes 308 A; experiment: as above; type: cell-based; details: Table 1 strain 1: Streptococcus pyogenes 308 A
[24] = test system: Staphylococcus aureus 88 E; experiment: In vitro anti-bacterial activity test (MIC, two-fold dilution method), Table 2 strains; type: cell-based; details: Table 2 strain 1: Staphylococcus aureus 88 E
[25] = test system: Staphylococcus aureus 690 E; experiment: as above; type: cell-based; details: Table 2 strain 5: Staphylococcus aureus 690 E; read-out: MIC
[26] = test system: Staphylococcus aureus 285; experiment: In vitro anti-bacterial activity test (MIC, two-fold dilution method) against the standard strains; type: cell-based; details: Table 1 strain 5: Staphylococcus aureus 285; read-out: MIC
[27] = test system: Staphylococcus aureus 208 E; experiment: In vitro anti-bacterial activity test (MIC, two-fold dilution method), Table 2 strains; type: cell-based; details: Table 2 strain 3: Staphylococcus aureus 208 E; read-out: MIC
[28] = test system: Staphylococcus aureus 697 E; experiment: as above; type: cell-based; details: Table 2 strain 10: Staphylococcus aureus 697 E
Escherichia coli OTEM = experiment: In vitro anti-bacterial activity test (MIC, two-fold dilution method) against the standard strains; type: cell-based; details: Table 1 strain 10: Escherichia coli OTEM
[29] = test system: Staphylococcus aureus 121 E; experiment: In vitro anti-bacterial activity test (MIC, two-fold dilution method), Table 2 strains; type: cell-based; details: Table 2 strain 2: Staphylococcus aureus 121 E; read-out: MIC
[30] = test system: Pseudomonas aeruginosa 9027; experiment: In vitro anti-bacterial activity test (MIC, two-fold dilution method) against the standard strains; type: cell-based; details: Table 1 strain 12: Pseudomonas aeruginosa 9027
[31] = test system: Streptococcus faecium MD 8b; experiment: as above; type: cell-based; details: Enterococcus faecium, MD8B; Table 1 strain 3: Streptococcus faecium MD 8b; read-out: MIC
[32] = test system: Staphylococcus aureus 711 E; experiment: In vitro anti-bacterial activity test (MIC, two-fold dilution method), Table 2 strains; type: cell-based; details: Table 2 strain 17: Staphylococcus aureus 711 E; read-out: MIC
[33] = test system: Staphylococcus aureus 705 E; experiment: as above; type: cell-based; details: Table 2 strain 13: Staphylococcus aureus 705 E; read-out: MIC
[34] = test system: Staphylococcus aureus 692 E; experiment: as above; type: cell-based; details: Table 2 strain 6: Staphylococcus aureus 692 E
[35] = test system: Staphylococcus aureus 725 E; experiment: as above; type: cell-based; details: Table 2 strain 19: Staphylococcus aureus 725 E; read-out: MIC
P. mirabilis = experiment: Preventive effect against the systemic infection; type: in vivo; details: Proteus mirabilis, 168 h, NMRI mice, survival on day 7, read-out: ED₅₀
Description: (§1) 10 fold of the pathogen which leads to 100% lethality were injected intraperitoneally to male and female NMRI mice weighing 18 to 20g. Immediately and after 4 hours, the dose of test compounds which was determined by two-fold serial dilution method was administered orally or subcutaneously; and on day 7, the effectiveness was evaluated in terms of ED₅₀ calculated from the number of survived mice by the probit analysis.

S. aureus 17740 = experiment: Preventive effect against the systemic infection; type: in vivo; details: Staphylococcus aureus, 168 h, NMRI mice, survival on day 7, read-out: ED₅₀
Description: as §1

SMILES: CNC1CC12CCN(c1c(F)cc3c(=O)c(C(=O)O)cn(C4CC4)c3c1F)C2 (stereo not shown) [Example 8, 7-(1-methylamino-5-azaspiro[2,4]heptane-5-yl)-1-cyclopropyl-6,8-difluoro-1,4-dihydro-4-oxo-quinoline-3-carboxylic acid]
- MIC [1]: 0.195 µg/mL (≈ 0.501 µM)
- MIC [2]: 0.049 µg/mL (≈ 0.126 µM)
- MIC [3]: 0.098 µg/mL (≈ 0.252 µM)
- MIC [4]: 0.195 µg/mL (≈ 0.501 µM)
- MIC (Escherichia coli DC 0 [5]): 0.013 µg/mL (≈ 0.0334 µM)
- MIC [6]: 0.049 µg/mL (≈ 0.126 µM)
- MIC [7]: 0.049 µg/mL (≈ 0.126 µM)
- MIC [8]: 0.391 µg/mL (≈ 1 µM)
- MIC [9]: 0.004 µg/mL (≈ 0.0103 µM)
- MIC [10]: 1.56 µg/mL (≈ 4.01 µM)
- MIC [11]: 0.049 µg/mL (≈ 0.126 µM)
- MIC [12]: 0.195 µg/mL (≈ 0.501 µM)
- MIC (Salmonella typhimurium): 0.049 µg/mL (≈ 0.126 µM)
- MIC [13]: 0.049 µg/mL (≈ 0.126 µM)
- MIC [14]: 0.195 µg/mL (≈ 0.501 µM)
- MIC (Escherichia coli DC 0 [15]): 0.391 µg/mL (≈ 1 µM)
- MIC [16]: 0.025 µg/mL (≈ 0.0642 µM)
- MIC [17]: 1.56 µg/mL (≈ 4.01 µM)
- MIC [18]: 0.098 µg/mL (≈ 0.252 µM)
- MIC [19]: 0.049 µg/mL (≈ 0.126 µM)
- MIC [20]: 0.049 µg/mL (≈ 0.126 µM)
- MIC [21]: 0.391 µg/mL (≈ 1 µM)
- MIC (Escherichia coli 1507 E): 0.049 µg/mL (≈ 0.126 µM)
- MIC [22]: 0.195 µg/mL (≈ 0.501 µM)
- MIC (Escherichia coli DC 2): 0.098 µg/mL (≈ 0.252 µM)
- MIC [23]: 0.391 µg/mL (≈ 1 µM)
- MIC [24]: 0.098 µg/mL (≈ 0.252 µM)
- MIC [25]: 0.049 µg/mL (≈ 0.126 µM)
- MIC [26]: 0.049 µg/mL (≈ 0.126 µM)
- MIC [27]: 0.098 µg/mL (≈ 0.252 µM)
- MIC [28]: 0.049 µg/mL (≈ 0.126 µM)
- MIC (Escherichia coli OTEM): 0.049 µg/mL (≈ 0.126 µM)
- MIC [29]: 0.098 µg/mL (≈ 0.252 µM)
- MIC [30]: 1.56 µg/mL (≈ 4.01 µM)
- MIC [31]: 0.195 µg/mL (≈ 0.501 µM)
- MIC [32]: 0.049 µg/mL (≈ 0.126 µM)
- MIC [33]: 0.195 µg/mL (≈ 0.501 µM)
- MIC [34]: 0.049 µg/mL (≈ 0.126 µM)
- MIC [35]: 0.098 µg/mL (≈ 0.252 µM)

SMILES: CC1COc2c(N3CCN(C)CC3)c(F)cc3c(=O)c(C(=O)O)cn1c23 (stereo not shown) [Ofloxacin, ofloxacin, reference compound]
- MIC [1]: 0.781 µg/mL (≈ 2.16 µM)
- MIC [2]: 0.391 µg/mL (≈ 1.08 µM)
- MIC [3]: 0.049 µg/mL (≈ 0.136 µM)
- MIC [4]: 0.781 µg/mL (≈ 2.16 µM)
- MIC (Escherichia coli DC 0 [5]): 0.013 µg/mL (≈ 0.036 µM)
- MIC [6]: 0.391 µg/mL (≈ 1.08 µM)
- ED50 (P. mirabilis; Oral Administration): 2.21 mg/kg
- ED50 (P. mirabilis; sc, Subcutaneous Injection): 0.33 mg/kg
- ED50 (S. aureus 17740; Oral Administration): > 200 mg/kg
- ED50 (S. aureus 17740; sc, Subcutaneous Injection): 200 mg/kg
- MIC [7]: 0.391 µg/mL (≈ 1.08 µM)
- MIC [8]: 0.781 µg/mL (≈ 2.16 µM)
- MIC [9]: < 0.002 µg/mL
- MIC [10]: 1.56 µg/mL (≈ 4.33 µM)
- MIC [11]: 0.391 µg/mL (≈ 1.08 µM)
- MIC [12]: 0.781 µg/mL (≈ 2.16 µM)
- MIC (Salmonella typhimurium): 0.025 µg/mL (≈ 0.0692 µM)
- MIC [13]: 0.195 µg/mL (≈ 0.54 µM)
- MIC [14]: 1.56 µg/mL (≈ 4.33 µM)
- MIC (Escherichia coli DC 0 [15]): 0.391 µg/mL (≈ 1.08 µM)
- MIC [16]: 0.013 µg/mL (≈ 0.036 µM)
- MIC [17]: 1.56 µg/mL (≈ 4.33 µM)
- MIC [18]: 0.781 µg/mL (≈ 2.16 µM)
- MIC [19]: 0.195 µg/mL (≈ 0.54 µM)
- MIC [20]: 0.025 µg/mL (≈ 0.0692 µM)
- MIC [21]: 0.391 µg/mL (≈ 1.08 µM)
- MIC (Escherichia coli 1507 E): 0.049 µg/mL (≈ 0.136 µM)
- MIC [22]: 0.781 µg/mL (≈ 2.16 µM)
- MIC (Escherichia coli DC 2): 0.195 µg/mL (≈ 0.54 µM)
- MIC [23]: 3.12 µg/mL (≈ 8.65 µM)
- MIC [24]: 0.781 µg/mL (≈ 2.16 µM)
- MIC [25]: 0.391 µg/mL (≈ 1.08 µM)
- MIC [26]: 0.391 µg/mL (≈ 1.08 µM)
- MIC [27]: 0.781 µg/mL (≈ 2.16 µM)
- MIC [28]: 0.391 µg/mL (≈ 1.08 µM)
- MIC (Escherichia coli OTEM): 0.049 µg/mL (≈ 0.136 µM)
- MIC [29]: 0.781 µg/mL (≈ 2.16 µM)
- MIC [30]: 1.56 µg/mL (≈ 4.33 µM)
- MIC [31]: 0.781 µg/mL (≈ 2.16 µM)
- MIC [32]: 0.391 µg/mL (≈ 1.08 µM)
- MIC [33]: 0.781 µg/mL (≈ 2.16 µM)
- MIC [34]: 0.391 µg/mL (≈ 1.08 µM)
- MIC [35]: 0.391 µg/mL (≈ 1.08 µM)
